Measured values published in US8394762B2, “Self-decontaminating coatings containing antimicrobial peptides” (The United States of America, as represented by the …, priority 2010, dated 2013).

Assays:
[1] = system: Staphylococcus aureus (ATCC 25923); test: MIC testing of peptides in solution, Gram-positive; assay type: cell-based; settings: peptide in solution, LB media, 18 hr 37° C., 1×10^5 CFU
Excerpt: (§1) Bacteria and media: Bacterial strains were obtained from the American Type Culture Collection (ATCC, Manassas, Va.) Staphylococcus aureus (ATCC 25923) and Escherichia coli (ATCC 11229) were used for bacterial Gram-positive and Gram-negative challenges, respectively. Luria-Bertani (LB) media (Difco Laboratories, Detroit, Mich.), prepared as per the manufacturer's specifications, was used as a bacterial growth and dilution medium for preparation of bacteria for Gram-positive and Gram-negative challenges.
Peptides: Peptides Chr-1, Chr-3, Chr-1 Truncated, and Chr-3 Truncated were obtained from Biosynthesis, Inc. (Lewisville, Tex.). Peptides were synthesized then purified by HPLC, Peptides arrived lyophilized, and were resuspended in sterile H2O. For minimum inhibitory concentration (MIC) testing, this suspension was added to media as described below. […]
Bacterial challenge: MIC testing: To determine the minimum inhibitory concentration (MIC) of peptides, compounds were weighed and dissolved in sterile water. […] Log phase cells were harvested by centrifugation, counted on a hemocytometer using bright field microscopy, pelleted by centrifugation at 4000×g for 10 min, and resuspended in a 0.5% NaCl solution at a concentration of 1×10^7 cfu/mL. […] MIC was determined to be the lowest concentration of biocide that prevented visible bacterial growth at 18 hr.

Escherichia coli = test: MIC testing of peptides in solution, Gram-negative; assay type: cell-based; settings: peptide in solution, LB media, 18 hr 37° C., 1×10^5 CFU
[2] = system: Staphylococcus aureus (ATCC 25923); test: Surface testing (log kill) of peptide-containing acrylic coatings, Gram-positive; assay type: cell-based; settings: for Surface antimicrobial activity of coating (in words), Gram-positive / Gram Positive Sample 1 Log Kill / Gram Positive Sample 2 Log Kill / Gram Positive Sample 3 Log Kill / Gram Positive Average Log Kill: 1% (w/w) peptide in acrylic coating; for Gram Positive Sample 1 Log Kill / Gram Positive Sample 2 Log Kill / Gram Positive Sample 3 Log Kill / Gram Positive Average Log Kill: 2 hr contact; for Gram Positive Sample 1 Log Kill / Gram Positive Sample 2 Log Kill / Gram Positive Sample 3 Log Kill: 1×10^5 bacteria; for Gram Positive Average Log Kill: average of triplicate
Excerpt: as §1
(§2) Peptides: Peptides Chr-1, Chr-3, Chr-1 Truncated, and Chr-3 Truncated were obtained from Biosynthesis, Inc. (Lewisville, Tex.). Peptides were synthesized then purified by HPLC, Peptides arrived lyophilized, and were resuspended in sterile H2O. For minimum inhibitory concentration (MIC) testing, this suspension was added to media as described below. For surface challenges, this peptide mixture was added to a commercial acrylate coating resin system at 1% (w/w) solids based on the solids of the polymer.
(§3) Coating preparation: Films were prepared by combining 25 mg of the respective peptide with 4.95 g acrylate resin (Minwax® Polycrylic®, a water borne polyacrylate resin, 50% w/w solids) with agitation. The final solution was allowed to stir for an additional 30 min and films were cast by brush onto a pre-cleaned aluminum foil. The coatings were allowed to cure at ambient conditions for 24 hours prior to microbial testing. Average thickness of films was determined by a QuaNix 4500 (Automation) paint thickness gauge.
(§4) Surface testing: Bacteria were grown at 37° C. Log phase cells were harvested by centrifugation, counted on a hemocytometer using bright field microscopy, pelleted by centrifugation at 4000×g for 10 min, and resuspended in a 0.5% NaCl solution at a concentration of 1×10^7 cfu/mL. To prevent desiccation of the bacteria during testing, a hydration chamber was prepared. The chamber consisted of a sterile 3×3 in gauze pad placed in the bottom of a sterile 150×15 mm Petri dish. The gauze pad was saturated with 5 mL of sterile water and the test samples placed on top. A 10 μL aliquot containing, 1×10^5 bacteria was added to each test coating (280 mm^2), and then placed in a hydration chamber at room temperature. After 2 hr of incubation, the remaining bacteria were recovered by placing the coating in a tube containing 5 mL sterile LB media, followed by 30 sec of vortexing. Serial dilutions were carried out, and incubated for 18 hr at 37° C. with agitation. Following incubation, the cultures were examined for the presence of turbidity, indicating bacterial growth. Each coating was tested in triplicate. […] All bacterial challenge procedures were conducted using standard aseptic techniques in a BSL-2 hood.

[3] = system: Escherichia coli (ATCC 11229); test: Surface testing (log kill) of peptide-containing acrylic coatings, Gram-negative; assay type: cell-based; settings: for Gram Negative Sample 1 Log Kill / Gram Negative Sample 2 Log Kill / Gram Negative Sample 3 Log Kill / Gram Negative Average Log Kill: 2 hr contact; for Gram Negative Sample 1 Log Kill / Gram Negative Sample 2 Log Kill / Gram Negative Sample 3 Log Kill: 1×10^5 bacteria; for Gram Negative Average Log Kill: average of triplicate
Excerpt: as §1, §2, §3, §4

[4] = Surface energy and contact angle of peptide coatings (sessile drop); assay type: physicochemical; settings: peptide in acrylic coating; for Critical Surface Energy: calculated from contact angle data; for Contact angle CH2OHCH2OH: ethylene glycol; for Contact angle CH2OHCH2OH / Contact angle CH2I2 / Contact angle H2O: 15 sec after application; for Contact angle CH2I2: methylene iodide; for Contact angle H2O: water
Description: Coating preparation: Films were prepared by combining 25 mg of the respective peptide with 4.95 g acrylate resin ([…]® Polycrylic®, a water borne polyacrylate resin, 50% w/w solids) with agitation. The final solution was allowed to stir for an additional 30 min and films were cast by brush onto a pre-cleaned aluminum foil. The coatings were allowed to cure at ambient conditions for 24 hours prior to microbial testing. Average thickness of films was determined by a QuaNix 4500 (Automation) paint thickness gauge. Surface Energy and Contact Angle: Surface energy and contact angle measurements were performed using a VCA 2500 video contact angle system by AST Products, Inc. Contact angle measurements using the sessile drop technique. An image was captured of the interface 15 sec after application and contact angle was measured. Due to the complex nature of coating and difficulty in ascertaining the surface segregating ability of the peptide. The surface contact angle method was used and subsequent critical surface energy calculations were based on the data obtained. In all cases the surface became more hydrophobic as indicated by the significant increase in contact angle for water. […] Upon subsequent analysis, a correlation was observed between critical surface energy and surface antimicrobial properties, especially Gram-positive, and to a much lesser extent Gram-negative.

[5] = Surface segregation of peptide, bromophenol blue staining; assay type: physicochemical; settings: peptide in acrylic coating; for Molecules Peptide per mm^2 at surface of coating: absorbance at 600 nm
Description: as §3
Surface Segregation of Peptide: Each 280 mm^2 section of the test coating was submerged in 0.5% bromophenol blue for one minute. Coatings were then removed and washed three times with 20 mL di-H2O. Bromophenol blue was then recovered from the test samples using 0.05 M HCl in ethanol. Absorbance at 600 nm was determined using a Cary 5E UV-Vis-NIR (Varian, Walnut Creek, Calif.). Beer's Law was used to determine concentration of bromophenol blue and thus concentration of peptides at the surface of the coatings.
Bromophenol blue has been used extensively to quantify the amount of protein or peptide in a solution (Bonate, Anal Biochem 1988, 175, 300-4; Schosinsky et al., Clin Chem 1987, 33, 223-6). A test method to visualize surface peptide using bromophenol blue was adapted from these solution test methods. To determine the extent which peptides were segregated to the surface of test coatings, each coating was reacted with an aqueous solution containing 0.5% bromophenol blue. This solution provided molar excess of bromophenol blue that was able to undergo an acid-base reaction with the amines of the peptide at a 1:1 ratio. The reaction was then reversed, and the bromophenol blue recovered with […]. The absorbance of this solution at 600 nm was determined and Beer's Law was used to determine the concentration of bromophenol blue (FIG. 2). This could be directly converted into number of peptides at the surface and correlated directly to the effectiveness of each coating.

[6] = system: Gram-positive and Gram-negative bacteria; settings: both Gram-positive and Gram-negative bacteria; Iijima et al. 2003; cited from earlier work
eukaryotic cells = settings: literature; cited from earlier work
[7] = 1% (w/w) peptide in acrylic coating

Row | Substance | MIC Gram + [1] | MIC Gram − (Escherichia coli) | Surface antimicrobial activity of coating (in words), Gram-positive [2] | Gram Positive Sample 1 Log Kill [2] | Gram Positive Sample 2 Log Kill [2] | Gram Positive Sample 3 Log Kill [2] | Gram Positive Average Log Kill [2] | Gram Negative Sample 1 Log Kill [3, 7] | Gram Negative Sample 2 Log Kill [3, 7] | Gram Negative Sample 3 Log Kill [3, 7] | Gram Negative Average Log Kill [3, 7] | Critical Surface Energy [4] [dynes/cm] | Contact angle CH2OHCH2OH [4] | Contact angle CH2I2 [4] | Contact angle H2O [4] | Molecules Peptide per mm^2 at surface of coating [5] | Antimicrobial activity concentration [6] | Toxicity to eukaryotic cells (eukaryotic cells) | further results
1 | Chr-1: Full length antimicrobial peptide Chrysophsin-1 from gills of red sea bream Chrysophrys major, SEQ. ID. NO. 1 (FFWLIKGAIHAGKAIHGLIHRRRH; Chrysophrys major) | 0.00667 mg of peptide per mL of culture media | 0.000667 mg of peptide per mL of culture media | high activity | 4 | 4 | 3 | 3.6667 | 1 | 2 | 1 | 1.3333 | 131.6 | 60.77(±3.35) | 69.45(±4.81) | 53.05(±4.04) | 6.8 × 10^13 Molecules Peptide per mm^2 | low micromolar | varying levels of toxicity | Reduction of bacterial loads by coating ([2]; Gram-positive and Gram-negative together): at least 90%; Reduction of Gram-positive bacteria by peptide containing coating ([2]; after two hours): 99.9%; Surface antimicrobial activity of coating (in words), Gram-negative [3, 7]: high activity; Reduction of Gram-negative bacteria by peptide containing coating ([3]; after two hours): 90%
2 | Chr-3: Full length antimicrobial peptide Chrysophsin-3 from gills of red sea bream Chrysophrys major, SEQ. ID. NO. 3 (FIGLLISAGKAIHDLIRRRH; Chrysophrys major) | 0.00667 mg of peptide per mL of culture media | 0.0667 mg of peptide per mL of culture media | moderate activity | 1 | 1 | 1 | 1 | 0 | 0 | 0 | 0 | 97.22 | 63.02(±3.51) | 64.57(±3.52) | 43.88(±5.01) | 1.9 × 10^13 Molecules Peptide per mm^2 | low micromolar | varying levels of toxicity | Peptide at surface of coating, % of total peptide [5]: (~1%)
